Data on five compounds can be found in article PMC3956377, “Rapid kill of malaria parasites by artemisinin and semi-synthetic endoperoxides involves ROS-dependent depolarization of the membrane potential” (Journal of Antimicrobial Chemotherapy, 2013).

Holding throughout (type): biochemical
The target in one assay is T1, PfNDH2 (Plasmodium falciparum, UniProt Q8I302).
T1 construct: gene PF3D7_0915000; recombinant, heterologously expressed; Escherichia coli crude membrane preparation
T1 sequence (Q8I302 34-533): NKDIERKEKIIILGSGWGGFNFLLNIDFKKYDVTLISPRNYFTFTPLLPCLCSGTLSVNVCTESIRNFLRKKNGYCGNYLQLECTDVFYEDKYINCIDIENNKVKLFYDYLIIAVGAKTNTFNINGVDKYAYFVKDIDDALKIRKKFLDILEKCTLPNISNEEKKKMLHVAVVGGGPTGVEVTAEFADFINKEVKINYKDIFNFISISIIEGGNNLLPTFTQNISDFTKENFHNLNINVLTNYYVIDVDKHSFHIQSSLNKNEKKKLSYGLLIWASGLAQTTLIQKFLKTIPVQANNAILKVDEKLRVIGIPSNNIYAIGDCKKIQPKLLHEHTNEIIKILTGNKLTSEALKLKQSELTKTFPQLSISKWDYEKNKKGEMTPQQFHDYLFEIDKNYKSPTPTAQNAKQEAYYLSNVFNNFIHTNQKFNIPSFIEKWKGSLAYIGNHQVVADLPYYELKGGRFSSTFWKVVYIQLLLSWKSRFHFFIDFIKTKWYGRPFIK
Description: spectrophotometric NADH:quinone oxidoreductase assay ([…] and […] nm). As to conditions: read-out: Percentage inhibition / PfNDH2.

Assay [1] addresses T2, complex IV (cytochrome c oxidase) (Plasmodium falciparum, UniProt A0A5K1K9G8).
T2 construct: gene PF3D7_MIT02100; native complex in cell-free extract of saponin-freed parasites; cytochrome c oxidase activity; with Cytochrome c oxidase subunit 3
T2 sequence (A0A5K1K9G8 1-508): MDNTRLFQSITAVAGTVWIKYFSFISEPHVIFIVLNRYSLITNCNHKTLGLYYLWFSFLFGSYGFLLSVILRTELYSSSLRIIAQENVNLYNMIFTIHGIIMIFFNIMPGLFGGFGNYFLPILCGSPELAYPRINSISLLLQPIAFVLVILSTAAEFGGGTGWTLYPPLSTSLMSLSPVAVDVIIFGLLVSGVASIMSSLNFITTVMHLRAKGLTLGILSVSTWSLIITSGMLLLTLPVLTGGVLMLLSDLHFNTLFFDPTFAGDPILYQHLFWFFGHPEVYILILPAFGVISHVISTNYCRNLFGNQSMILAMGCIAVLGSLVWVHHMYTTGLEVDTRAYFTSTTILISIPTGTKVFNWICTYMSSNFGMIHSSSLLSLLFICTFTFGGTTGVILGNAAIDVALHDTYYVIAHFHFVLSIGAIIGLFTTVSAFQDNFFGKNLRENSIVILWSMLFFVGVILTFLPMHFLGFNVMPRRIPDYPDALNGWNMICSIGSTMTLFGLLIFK
T2 sequence (Q7HP05 1-279 partner): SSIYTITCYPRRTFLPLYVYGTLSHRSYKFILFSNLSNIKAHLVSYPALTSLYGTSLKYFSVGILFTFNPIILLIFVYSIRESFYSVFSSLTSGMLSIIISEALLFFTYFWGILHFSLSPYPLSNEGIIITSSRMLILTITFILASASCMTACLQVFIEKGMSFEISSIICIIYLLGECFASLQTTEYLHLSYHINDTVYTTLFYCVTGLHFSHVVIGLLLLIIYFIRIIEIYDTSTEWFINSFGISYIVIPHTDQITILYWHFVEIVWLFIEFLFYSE
Kind of assay: spectrophotometric cytochrome c oxidation. Conditions: read-out: Percentage inhibition / complex IV.

The target of another assay is T3, bc1 (complex III) (Plasmodium falciparum, UniProt Q7HP03+Q8IL75).
T3 construct: gene PF3D7_MIT02300; native complex in cell-free extract of saponin-freed parasites; decylubiquinol:cytochrome c oxidoreductase activity; with Cytochrome c1, heme protein, mitochondrial
T3 sequence (Q7HP03 1-376): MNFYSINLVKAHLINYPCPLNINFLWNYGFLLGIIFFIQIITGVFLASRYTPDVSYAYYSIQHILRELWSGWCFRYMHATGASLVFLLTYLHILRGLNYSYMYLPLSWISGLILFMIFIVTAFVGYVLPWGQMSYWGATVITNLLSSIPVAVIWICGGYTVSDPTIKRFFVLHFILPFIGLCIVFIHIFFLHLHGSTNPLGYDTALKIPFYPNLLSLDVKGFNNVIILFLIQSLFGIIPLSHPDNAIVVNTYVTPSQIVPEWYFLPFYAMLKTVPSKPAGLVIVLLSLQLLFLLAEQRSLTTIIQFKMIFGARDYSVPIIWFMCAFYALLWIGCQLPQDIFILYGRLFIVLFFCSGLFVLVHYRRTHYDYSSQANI
T3 sequence (Q8IL75 31-355): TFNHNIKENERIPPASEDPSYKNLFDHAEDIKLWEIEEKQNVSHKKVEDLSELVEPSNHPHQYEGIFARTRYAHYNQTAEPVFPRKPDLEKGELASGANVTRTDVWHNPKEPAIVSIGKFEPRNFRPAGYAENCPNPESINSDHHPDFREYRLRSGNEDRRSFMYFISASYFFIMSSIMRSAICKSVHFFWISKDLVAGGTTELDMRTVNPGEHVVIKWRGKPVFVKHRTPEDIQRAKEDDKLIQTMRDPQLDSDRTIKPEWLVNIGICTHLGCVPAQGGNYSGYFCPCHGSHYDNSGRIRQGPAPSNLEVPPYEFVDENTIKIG
T3 sequence (Q8I6U9 1-394 partner): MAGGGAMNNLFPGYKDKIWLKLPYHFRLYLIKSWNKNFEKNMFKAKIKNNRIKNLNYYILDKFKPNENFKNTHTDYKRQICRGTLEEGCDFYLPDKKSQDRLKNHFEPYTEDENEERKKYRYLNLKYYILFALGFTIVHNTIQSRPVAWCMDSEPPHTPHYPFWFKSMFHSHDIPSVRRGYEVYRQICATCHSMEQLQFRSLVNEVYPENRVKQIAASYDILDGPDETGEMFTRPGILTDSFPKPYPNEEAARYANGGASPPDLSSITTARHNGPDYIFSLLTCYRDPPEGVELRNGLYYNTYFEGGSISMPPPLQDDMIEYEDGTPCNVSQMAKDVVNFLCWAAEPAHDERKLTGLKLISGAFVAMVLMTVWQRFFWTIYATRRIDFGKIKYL
Kind of assay: spectrophotometric cytochrome c reduction ([…]-542 nm). Conditions: read-out: Percentage inhibition / bc1 (complex III).

Turning to `C[C@H]1[C@H](OC(=O)CCC(=O)O)O[C@@H]2O[C@@]3(C)CC[C@H]4[C@H](C)CC[C@@H]1[C@@]24OO3` [Artesunate], the inhibition at 1 µM at PfNDH2 came out at 3.7 ± 2.9%; in assay [1] it was 21.1 ± 3.9%; at bc1 (complex III), 2.3 ± 0.4%.

Regarding `C[C@@H]1CC[C@H]2[C@@H](C)C(O)O[C@@H]3O[C@@]4(C)CC[C@@H]1[C@]32OO4` (stereo partly drawn) [Dihydroartemisinin], the results for the inhibition at 1 µM (on PfNDH2; in assay [1]; at bc1 (complex III)) were 5 ± 4.3%, 21.1 ± 7.9% and 6.7 ± 4.1%, respectively.

With `CO[C@H]1O[C@@H]2O[C@@]3(C)CC[C@H]4[C@H](C)CC[C@@H]([C@H]1C)[C@@]24OO3` [Artemether], the inhibition at 1 µM at PfNDH2 was determined as 4.1 ± 3.3%; in assay [1], 23 ± 2%; at bc1 (complex III), 1.8 ± 1.9%.

Take `C[C@@H]1CC[C@H]2[C@@H](C)C(=O)O[C@@H]3O[C@@]4(C)CC[C@@H]1[C@]32OO4` [Artemisinin]: the inhibition at 1 µM at PfNDH2 was found to be 17.1 ± 4.2%; in assay [1], 18.4 ± 4.3%; at bc1 (complex III), 3.2 ± 3.7%.

For `CN1CCN(C2CCN(C(=O)CC3CCC4(CC3)OOC3(OO4)C4CC5CC(C4)CC3C5)CC2)CC1` (stereo not drawn), the inhibition at 1 µM at PfNDH2 came to 12.3 ± 4.9%; in assay [1] it was 19.1 ± 2%; on bc1 (complex III) it was 23.2 ± 4.2%.
